Consider 14 molecules from patent US20050137135A1 (priority 2002, published 2005).

Square brackets hold non-standard residues; d marks the D form. Ends that are not written are not given here. Peptide text beside a SMILES is read from it. Ahx = NCCCCCC(=O)O

Test [1] concerns the target T1, rat pancreatic islet (wild type) GIP-receptor (Rattus norvegicus, UniProt P43219).
T1 construct: expressed in transfected cells; host or cells: CHO-K1 (Chinese hamster ovary)
T1 sequence (P43219 19-455): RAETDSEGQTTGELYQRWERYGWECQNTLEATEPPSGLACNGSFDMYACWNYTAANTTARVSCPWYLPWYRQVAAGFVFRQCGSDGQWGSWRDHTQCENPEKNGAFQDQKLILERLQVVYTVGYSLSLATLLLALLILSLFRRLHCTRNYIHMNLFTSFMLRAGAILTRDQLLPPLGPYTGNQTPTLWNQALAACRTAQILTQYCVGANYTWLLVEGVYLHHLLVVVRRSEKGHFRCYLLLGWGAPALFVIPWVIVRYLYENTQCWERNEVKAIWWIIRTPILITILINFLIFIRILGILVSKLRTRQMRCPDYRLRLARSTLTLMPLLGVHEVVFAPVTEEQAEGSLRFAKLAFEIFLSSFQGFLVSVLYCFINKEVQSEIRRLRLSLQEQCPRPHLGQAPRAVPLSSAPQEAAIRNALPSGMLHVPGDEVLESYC
The experiment in a line: cAMP production in CHO-K1 cells expressing the GIP-receptor (wtGIP-R1 cells). The following applies: Table 3; cyclic AMP stimulated by 20 μM peptide if plateau levels were not achieved. Format: cell-based. The method, then:
(§1) Cells were cultured in DMEM/F12, supplemented with 10% newborn calf serum, 50 units/ml penicillin G, and 50 μg/ml streptomycin (Culture media and antibiotics from Gibco BRL, Life Technologies). Cells were grown in 75 cm^2 flasks until 80-90% confluent, when they were split and seeded onto 24 well plates at a density of 50,000 cells/well. Experiments were carried out 48 h later.
Cells were extracted with 70% ethanol and cAMP levels measured by radioimmunoassay (Biomedical Technologies, Stoughton, Mass.). Data are expressed as fmol/1000 cells or % maximal GIP1-42-stimulated cAMP production (inhibition experiments).

Test [2] deals with T1, rat pancreatic islet (wild type) GIP-receptor. Put plainly: biochemical. The test is classed as binding. The following applies: read-out: Receptor Binding % Displacement at 20 μM. The procedure:
as §1
(§2) Binding studies using ^125I-labeled spGIP1-42, purified by high performance liquid chromatography (HPLC), were performed essentially as described previously-[21]. wtGIP-R1 Cells (1-5×10^5/well) were washed twice at 4° C. in binding buffer (BB), consisting of DMEM/F12 (GIBCO), 15 mM HEPES, 0.1% bovine serum albumin (BSA), 1% Trasylol (aprotinin; Bayer), pH 7.4. They were incubated for 12-16 h at 4° C. with ^125I-spGIP (50,000 cpm) in the presence or absence of unlabeled GIP1-42 or analogue. Following incubation, cells were washed twice with ice cold buffer, solubilized with 0.1 M NaOH (1 ml), and transferred to culture tubes for counting of cell-associated radioactivity. Nonspecific binding was defined as that measured in the presence of 1 μM GIP1-42 or GIP1-30, and specific binding expressed as % of binding in the absence of competitor (% B/Bo).

Test [3] addresses T2, rat pancreatic islet (wild type) GIP-receptor stably expressed on CHO-K1 cells (rat, UniProt P43219 19-455).
T2 sequence (looked up): T1 sequence (P43219 19-455)
The experiment in a line: cell-based or functional assay.

Test [4] has as its target T2, rat pancreatic islet (wild type) …. Put plainly: competition with 125I-GIP on CHO-K1 cells transfected with rat GIP receptor. The procedure:
(§3) Cells were cultured in DMEM/F12, supplemented with 10% newborn calf serum, 50 units/ml penicillin G, and 50 μg/ml streptomycin (Culture media and antibiotics from Gibco BRL, Life Technologies). Cells were grown in 75 cm² flasks until 80-90% confluent, when they were split and seeded onto 24 well plates at a density of 50,000 cells/well. Experiments were carried out 48 h later.
as §2, with “¹²⁵I-labeled spGIP₁₋₄₂,” for “^125I-labeled spGIP1-42,”, “(1-5×10⁵/well)” for “(1-5×10^5/well)”, “¹²⁵I-spGIP” for “^125I-spGIP”, “GIP₁₋₄₂” for “GIP1-42”, “GIP₁₋₃₀,” for “GIP1-30,”

Test [5] has the same target. The experiment in a line: displacement of 125I-GIP from CHO-K1 cells transfected with rat GIP receptor, 20 µM peptide. The procedure:
as §3
as §2, with “¹²⁵I-labeled spGIP₁₋₄₂,” for “^125I-labeled spGIP1-42,”, “(1-5×10⁵/well)” for “(1-5×10^5/well)”, “¹²⁵I-spGIP” for “^125I-spGIP”, “GIP₁₋₄₂” for “GIP1-42”, “GIP₁₋₃₀,” for “GIP1-30,”

The IC50 is the midpoint of a concentration-inhibition curve. Read a high IC50 as a need for much substance.

On to `CC(C)C[C@H](NC(=O)[C@H](CC(C)C)NC(=O)[C@H](Cc1c[nH]c2ccccc12)NC(=O)[C@H](CC(N)=O)NC(=O)[C@@H](NC(=O)[C@H](Cc1ccccc1)NC(=O)[C@H](CC(=O)O)NC(=O)[C@H](CCC(N)=O)NC(=O)[C@H](CCC(N)=O)NC(=O)CCCCCNC(=O)CCCCCNC(=O)[C@H](Cc1ccccc1)NC(=O)[C@@H](NC(=O)CNC(=O)[C@H](CCC(=O)O)NC(=O)[C@H](C)NC(=O)[C@@H](N)Cc1ccc(O)cc1)[C@@H](C)O)C(C)C)C(=O)N[C@@H](C)C(=O)N[C@@H](CCC(N)=O)C(=O)N[C@@H](CCCCN)C(N)=O` [GIP(1-6)(Ahx)2(19-30)NH2] (H-YAEGTF[Ahx][Ahx]QQDFVNWLLAQK-NH2; N-terminus assumed), for which, in test [1], the “cAMP Production Max. cAMP (Fold Basal)” value is on record as 2.55 ± 0.84 Fold Basal. Further, the inhibition at 20 µM in test [2] came out at 75.3 ± 3.3%.
As to `CC(C)C[C@H](NC(=O)[C@H](CC(C)C)NC(=O)[C@H](Cc1c[nH]c2ccccc12)NC(=O)[C@H](CC(N)=O)NC(=O)[C@@H](NC(=O)[C@H](Cc1ccccc1)NC(=O)[C@H](CC(=O)O)NC(=O)[C@H](CCC(N)=O)NC(=O)[C@H](CCC(N)=O)NC(=O)CCCCCNC(=O)CCCCCNC(=O)CCCCCNC(=O)[C@H](Cc1ccccc1)NC(=O)[C@@H](NC(=O)CNC(=O)[C@H](CCC(=O)O)NC(=O)[C@H](C)NC(=O)[C@@H](N)Cc1ccc(O)cc1)[C@@H](C)O)C(C)C)C(=O)N[C@@H](C)C(=O)N[C@@H](CCC(N)=O)C(=O)N[C@@H](CCCCN)C(N)=O` [GIP(1-6)(Ahx)3(19-30)NH2] (H-YAEGTF[Ahx][Ahx][Ahx]QQDFVNWLLAQK-NH2; N-terminus assumed), the “cAMP Production Max. cAMP (Fold Basal)” value in test [1] came out at 13.5 ± 1.5 Fold Basal. Also, the inhibition at 20 µM in test [2] was 67.1 ± 1%.
Regarding `CC[C@H](C)[C@H](NC(=O)[C@H](CO)NC(=O)[C@H](Cc1ccc(O)cc1)NC(=O)[C@H](CC(=O)O)NC(=O)[C@H](CO)NC(=O)[C@@H](NC(=O)[C@H](Cc1ccccc1)NC(=O)[C@@H](NC(=O)CNC(=O)[C@H](CCC(=O)O)NC(=O)[C@H](C)NC(=O)[C@@H](N)Cc1ccc(O)cc1)[C@@H](C)O)[C@@H](C)CC)C(=O)N[C@@H](C)C(=O)N[C@@H](CCSC)C(=O)NCCCCCC(=O)N[C@@H](CCC(N)=O)C(=O)N[C@@H](CCC(N)=O)C(=O)N[C@@H](CC(=O)O)C(=O)N[C@@H](Cc1ccccc1)C(=O)N[C@H](C(=O)N[C@@H](CC(N)=O)C(=O)N[C@@H](Cc1c[nH]c2ccccc12)C(=O)N[C@@H](CC(C)C)C(=O)N[C@@H](CC(C)C)C(=O)N[C@@H](C)C(=O)N[C@@H](CCC(N)=O)C(=O)N[C@@H](CCCCN)C(N)=O)C(C)C` [GIP(1-14)(Ahx)1(19-30)NH2] (H-YAEGTFISDYSIAM[Ahx]QQDFVNWLLAQK-NH2; N-terminus assumed), the “cAMP Production Max. cAMP (Fold Basal)” value in test [1] came to 102.1 ± 5.0 Fold Basal. In addition, the inhibition at 20 µM in test [2] amounted to 86.1 ± 1.9%.
On the same counts, the results for `CC[C@H](C)[C@H](NC(=O)[C@H](CO)NC(=O)[C@H](Cc1ccc(O)cc1)NC(=O)[C@H](CC(=O)O)NC(=O)[C@H](CO)NC(=O)[C@@H](NC(=O)[C@H](Cc1ccccc1)NC(=O)[C@@H](NC(=O)CNC(=O)[C@H](CCC(=O)O)NC(=O)[C@H](C)NC(=O)[C@@H](N)Cc1ccc(O)cc1)[C@@H](C)O)[C@@H](C)CC)C(=O)N[C@@H](C)C(=O)N[C@@H](CCSC)C(=O)NCCCCCC(=O)NCCCCCC(=O)N[C@@H](CCC(N)=O)C(=O)N[C@@H](CCC(N)=O)C(=O)N[C@@H](CC(=O)O)C(=O)N[C@@H](Cc1ccccc1)C(=O)N[C@H](C(=O)N[C@@H](CC(N)=O)C(=O)N[C@@H](Cc1c[nH]c2ccccc12)C(=O)N[C@@H](CC(C)C)C(=O)N[C@@H](CC(C)C)C(=O)N[C@@H](C)C(=O)N[C@@H](CCC(N)=O)C(=O)N[C@@H](CCCCN)C(N)=O)C(C)C` [GIP(1-14)(Ahx)2(19-30)NH2] (H-YAEGTFISDYSIAM[Ahx][Ahx]QQDFVNWLLAQK-NH2; N-terminus assumed) are 95.9 ± 3.2 Fold Basal and 85.8 ± 1.6%.
On to `CC[C@H](C)[C@H](NC(=O)[C@H](CO)NC(=O)[C@H](Cc1ccc(O)cc1)NC(=O)[C@H](CC(=O)O)NC(=O)[C@H](CO)NC(=O)[C@@H](NC(=O)[C@H](Cc1ccccc1)NC(=O)[C@@H](NC(=O)CNC(=O)[C@H](CCC(=O)O)NC(=O)[C@H](C)NC(=O)[C@@H](N)Cc1ccc(O)cc1)[C@@H](C)O)[C@@H](C)CC)C(=O)N[C@@H](C)C(=O)N[C@@H](CCSC)C(=O)NCCCCCC(=O)NCCCCCC(=O)NCCCCCC(=O)N[C@@H](CCC(N)=O)C(=O)N[C@@H](CCC(N)=O)C(=O)N[C@@H](CC(=O)O)C(=O)N[C@@H](Cc1ccccc1)C(=O)N[C@H](C(=O)N[C@@H](CC(N)=O)C(=O)N[C@@H](Cc1c[nH]c2ccccc12)C(=O)N[C@@H](CC(C)C)C(=O)N[C@@H](CC(C)C)C(=O)N[C@@H](C)C(=O)N[C@@H](CCC(N)=O)C(=O)N[C@@H](CCCCN)C(N)=O)C(C)C` [GlP(1-14)(Ahx)3(19-30)NH2] (H-YAEGTFISDYSIAM[Ahx][Ahx][Ahx]QQDFVNWLLAQK-NH2; N-terminus assumed), for which the “cAMP Production Max. cAMP (Fold Basal)” value in test [1] is 49.5 ± 1.6 Fold Basal. In test [2], the inhibition at 20 µM was 82.7 ± 3.2%.
Consider “YAEGTFAAAAQQDFVNWLLAQK-NH2 [GIP(l-6)(AAAA)(19-30)NH2]”, for which the “cAMP Production Max. cAMP (Fold Basal)” value in test [1] was 7.21 ± 0.99 Fold Basal. In test [2], the inhibition at 20 µM amounted to 88.7 ± 3%.
With YAEGTFEKEEKEKEEKEQQDFVNWLLAQK-NH2, in test [1], the “cAMP Production Max. cAMP (Fold Basal)” value was determined as 84.9 ± 8.1 Fold Basal. The inhibition at 20 µM in test [2] was 75.1 ± 2.7%.
On to “YAEGTFEKEKQQDFVNWLLAQK-NH2 [GIP(1-6)(EKEK)(19-30)NH2]”, for which, in test [1], the “cAMP Production Max. cAMP (Fold Basal)” value was determined as 8.17 ± 0.87 Fold Basal. Besides, in test [2], the inhibition at 20 µM came out at 86.8 ± 1.6%.
On to “YAEGTFISDYSIAMAAAAQQDFVNWLLAQK-NH2 [GIP(1-14)(AAAA)(19-30)NH2]”, for which, in test [1], the “cAMP Production Max. cAMP (Fold Basal)” value was 82.1 ± 2.8 Fold Basal. Besides, the inhibition at 20 µM in test [2] worked out at 100 ± 0.9%.
For the molecule “YAEGTFISDYSIAMEKEKQQDFVNWLLAQK-NH2 [GIP(1-14)(EKEK)(19-30)NH2]”, in test [1], the “cAMP Production Max. cAMP (Fold Basal)” value worked out at 80.6 ± 5.6 Fold Basal. Besides, the inhibition at 20 µM in test [2] is 98.7 ± 1.1%.
With “YAEGTFISDYSIAMQQDFVNWLLAQK-NH2 [GIP(1-14)(19-30)NH2]”, in test [1], the “cAMP Production Max. cAMP (Fold Basal)” value turned out to be 127 ± 22 Fold Basal. The inhibition at 20 µM in test [2] came to 95.4 ± 0.7%.
For “YAEGTFQQDFVNWLLAQK-NH2 [GIP(1-6)(19-30)NH2]”, the “cAMP Production Max. cAMP (Fold Basal)” value in test [1] turned out to be 1.81 ± 0.42 Fold Basal. The inhibition at 20 µM in test [2] turned out to be 88.2 ± 0.7%.

B1: GIP(1-6)(AAAA)(19-30)NH2 (peptide)
peptide: YAEGTFAAAAQQDFVNWLLAQK-NH2
notes: range 1-6;range 19-30; also called GIP(l-6)(AAAA)(19-30)NH2
In the case of B1, the “Max. cAMP (Fold Basal)” value in test [3] worked out at 7.21 fold basal. For the same molecule, the IC50 in test [4] is 2410 nM. The “% Displacement at 20 µM” value in test [5] was 88.7%.

B2: GIP(1-6)(19-30)NH2 (peptide, UniProt P09681 52-57, looked up)
peptide: YAEGTFQQDFVNWLLAQK-NH2
notes: range 1-6;range 19-30; Core deletion, no linker (formula 5, C not used, truncated at residue 30)
B2: in test [3], the “Max. cAMP (Fold Basal)” value was 1.81 fold basal. In addition, the IC50 in test [4] is 2740 nM. Also, in test [5], the “% Displacement at 20 µM” value was 88.2%.
